PubChem BioAssay (NCI)
Where “and” joins values, the source holds several entries; their conditions need not be identical. Equal entries are not always repeated.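 The compound was tested at five concentrations on cells cultured in 96-well plates, with a 48-hour exposure period. At the GI50, growth is halved. TGI is the concentration that stops growth completely.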

Tests used:
Test in all cases: NCI anticancer screen, dose series, 48 h
HT29 colon = system: HT29 colon
SF-268 CNS = system: SF-268 CNS
HCT-15 colon = system: HCT-15 colon
IGROV1 ovarian = system: IGROV1 ovarian
MALME-3M melanoma = system: MALME-3M melanoma
SK-MEL-2 melanoma = system: SK-MEL-2 melanoma
HOP-92 NSCLC = system: HOP-92 NSCLC
786-0 renal = system: 786-0 renal
SN12C renal = system: SN12C renal
SNB-19 CNS = system: SNB-19 CNS

Row | Compound | GI50 (HT29 colon) | TGI (HT29 colon) | GI50 (SF-268 CNS) | TGI (SF-268 CNS) | GI50 (HCT-15 colon) | TGI (HCT-15 colon) | GI50 (IGROV1 ovarian) | TGI (IGROV1 ovarian) | GI50 (MALME-3M melanoma) | TGI (MALME-3M melanoma) | GI50 (SK-MEL-2 melanoma) | TGI (SK-MEL-2 melanoma) | GI50 (HOP-92 NSCLC) | TGI (HOP-92 NSCLC) | GI50 (786-0 renal) | TGI (786-0 renal) | GI50 (SN12C renal) | TGI (SN12C renal) | GI50 (SNB-19 CNS) | TGI (SNB-19 CNS)
1 | COc1ccc(-c2ccc3ncc4c(c3c2)n(-c2ccc(N3CCNCC3)c(C(F)(F)F)c2)c(=O)n4C)cn1 | < 0.01 µM and 0.00658 µM | 0.122 µM and 0.393 µM | < 0.01 µM and 0.00867 µM | 0.755 µM and 1.22 µM | < 0.0104 µM and 0.0127 µM | 0.137 µM and 0.186 µM | < 0.01 µM and 0.0016 µM | 0.0332 µM and 0.0162 µM | < 0.01 µM and 0.00404 µM | 0.03 µM and 0.0353 µM | < 0.01 µM and 0.0101 µM | 0.0369 µM and 0.044 µM | < 0.01 µM and 0.00146 µM | 0.0219 µM and 0.0155 µM | < 0.01 µM and 0.00325 µM | 0.111 µM and 0.107 µM | < 0.0112 µM and 0.00382 µM | 1.56 µM and 0.381 µM | < 0.01 µM and 0.00778 µM | 1.2 µM and 0.254 µM
2 | Clc1ccccc1C1N2CCCCC2[C@@H]2c3[nH]c4ccccc4c3CCN12 (stereo partly drawn) |  | 31.8 µM |  | 38.4 µM |  | 29.9 µM |  | > 100 µM |  | 22.1 µM |  | 34.1 µM |  | > 100 µM |  | 42.2 µM |  | 30.9 µM |  | 82.7 µM
3 | Nc1ccc(-c2ccc(Nc3cc(S(=O)(=O)O)c(N)c4c3C(=O)c3ccccc3C4=O)cc2)c(S(=O)(=O)O)c1 |  | > 100 µM |  | > 100 µM |  | > 100 µM |  | > 100 µM |  | > 100 µM |  | > 100 µM |  | > 100 µM |  | > 100 µM |  | > 100 µM |  | > 100 µM
4 | CC(C)[C@](O)(C(=O)OCC1=CC[N+]2([O-])CC[C@@H](O)[C@@H]12)[C@H](C)O (stereo partly drawn) |  | > 10000 µM |  | > 10000 µM |  | > 10000 µM |  | > 10000 µM |  | > 10000 µM |  | > 10000 µM |  | > 10000 µM |  | > 10000 µM |  | > 10000 µM |  | > 10000 µM
5 | C=CC[N+]1(CCO)CCN=C1CCCCCCCCCCCCC (stereo not drawn) | 1.3 µM | 2.56 µM |  |  |  |  | 0.288 µM | 1.25 µM | 1.6 µM | 3.18 µM | 2.04 µM | 3.69 µM |  |  | 1.65 µM | 3.01 µM | 1.46 µM | 2.85 µM | 1.63 µM | 2.99 µM
6 | CCCCCCCCCCCCC/C=C1\C[C@H](O)COC1=O |  | 30.6 µM |  | 38 µM |  | 32.2 µM |  | 32.3 µM |  | 35.5 µM |  | 31.1 µM |  | 24.7 µM |  | 29.5 µM |  | 28.8 µM |  | 32.9 µM
7 | Cc1coc2c1CC1OC1(C)CCC1OC1(C)C2 (stereo not drawn) |  |  |  | > 100 µM |  | > 100 µM |  | > 100 µM |  |  |  | > 100 µM |  | > 100 µM |  | > 100 µM |  | > 100 µM |  | > 100 µM
8 | COC1=C(C)C(=O)C2=C(C1=O)C(CO)N1C(C#N)C3CC4C(C1C2N1CCOC41)N3C (stereo not drawn) |  | 0.423 µM and 0.0773 µM |  | 0.94 µM and 0.408 µM and 1.98 µM | 0.00146 µM and 0.0129 µM |  | 0.00217 µM and 0.0216 µM |  |  |  |  | 0.0451 µM and 0.038 µM and 0.0364 µM | 0.0014 µM |  | 0.00243 µM | 1.31 µM and 1.55 µM |  |  |  | 8.15 µM and 5.65 µM and 13.6 µM
9 | COc1cc(CNc2nc3cc(N)cc(N)c3nc2-c2ccccc2)cc(OC)c1OC | 8.63 µM | 19.5 µM | 2.93 µM | 14 µM | 3.27 µM | 13.9 µM | 9.11 µM | > 50 µM |  |  | 16.1 µM | > 50 µM | 1.21 µM | 3.12 µM | 15.6 µM | > 50 µM | 8.66 µM | 16.7 µM | 7.22 µM | 20.8 µM
10 | N.N.N.N.N.N#N.[Cl-].[Os+7] |  |  | > 100 µM | > 100 µM | > 100 µM | > 100 µM | > 100 µM | > 100 µM | > 100 µM | > 100 µM | > 100 µM | > 100 µM |  |  | > 100 µM | > 100 µM | > 100 µM | > 100 µM | > 100 µM | > 100 µM
11 | Cc1cccc(Cl)c1NC(N)=S |  | > 100 µM |  | > 100 µM |  | 37.1 µM |  | > 100 µM |  | > 100 µM |  |  |  | > 100 µM |  | 48.6 µM |  | > 100 µM |  | > 100 µM
12 | COc1cccc2c1nc1cccc(OC)c1[n+]2[O-] | 1.55 µM | 13.9 µM | 2.65 µM | 13.8 µM | 2.93 µM | 12.7 µM | 2.35 µM | 15.9 µM | 12.8 µM | 30.3 µM | 5.44 µM | 18.4 µM | 2.71 µM | 9.28 µM | 3.61 µM | 15 µM | 4.15 µM | 16.3 µM |  | 
13 | Cc1ccc(/C=N/NS(=O)(=O)c2ccccc2)cc1 |  | > 100 µM |  | > 100 µM |  | > 100 µM |  | > 100 µM |  | > 100 µM |  | > 100 µM |  | > 100 µM |  | > 100 µM |  | > 100 µM |  | 
14 | CC(C)(C)CC(C)(C)N(CSc1ccc(Cl)cc1)CSc1ccc(Cl)cc1 | 2.83 µM | 9.18 µM | 0.803 µM | 4.39 µM | 2.29 µM | 11.5 µM | 0.745 µM | 2.7 µM |  |  | 2.54 µM | 6.28 µM |  |  | 1.56 µM | 4.01 µM | 0.506 µM | 3.45 µM | 2.14 µM | 19.9 µM
15 | COc1cc([N+](=O)[O-])c(S(=O)(=O)O)cc1N |  | > 100 µM |  | > 100 µM |  | > 100 µM |  | > 100 µM |  |  |  | > 100 µM |  |  |  | > 100 µM |  | > 100 µM |  | > 100 µM
16 | CCOC(=O)/C(=C/c1ccccc1)C(=O)c1ccccc1 | 2.78 µM | 5.8 µM | 4.37 µM | 21.1 µM | 2.97 µM | 11.2 µM | 2.86 µM | 8.05 µM | 2.94 µM | 9.09 µM |  |  | 3.92 µM | 21.8 µM | 3.02 µM | 8.09 µM | 3.21 µM | 12 µM | 5.84 µM | 20.7 µM
17 | CC1(C(=O)NCCN(CCNC(=O)C2(C)CC3(C)CC(C)(C2)C(=O)NC3=O)CCNC(=O)C2(C)CC3(C)CC(C)(C2)C(=O)NC3=O)CC2(C)CC(C)(C1)C(=O)NC2=O (stereo not drawn) |  | > 100 µM |  |  |  | > 100 µM |  | > 100 µM |  |  |  | > 100 µM |  |  |  | > 100 µM |  | > 100 µM |  | > 100 µM
18 | Clc1nc(Cl)c2ncn(C/C=C/Cn3cnc4c(Cl)nc(Cl)nc43)c2n1 | 14.7 µM | 29.9 µM | 14.6 µM | 30.5 µM | 16.1 µM | 30.2 µM | 11.8 µM | 25.7 µM | 31.2 µM | 52.5 µM | 14.2 µM | 29.3 µM |  |  | 23.4 µM | 48.5 µM | 19.7 µM | 40.7 µM | 19.1 µM | 38 µM
